Reference: US11312727B1, “Macrocyclic flu endonuclease inhibitors” (Janssen BioPharma, Inc., priority 2018, dated 2022)
Like-named read-outs stand apart in the source and are kept apart here.

Legend:
[1] = tested on: Influenza strain A549 A/WSN/33 (H1N1); experiment: microbe, parasite or virus in culture; assay type: cell-based; conditions: A549 cells, influenza A/WSN/33 (H1N1), 20 hours incubation, read-out: A549_A(H1N1) EC50
[2] = tested on: Human lung carcinoma A549 cells; conditions: uninfected A549 cells, CellTiter-Glo
in vitro = conditions: human, CC50, uninfected A549 cells, CellTiter-Glo
[3] = target: EN PA (full length recombinant PA endonuclease) (Influenza A virus (strain A/Wilson-Smith/1933 H1N1) (Influenza A virus (strain A/WS/1933 H1N1)), UniProt P15659); experiment: biochemical; conditions: full length EN PA 1 to 10 nM, 50 nM FRET probe; mean of a minimum of two independent experiments; read-out: FRET_ _IC50

Row | SMILES | EC50 [1] | CC50 [2] | CC50 (in vitro) | IC50 [3] | EC50 ([1]; Influenza A virus, A549, 20 h)
1 | O=C1c2c(O)c(=O)ccn2N2CN1C/C=C/CCc1ccccc1C2c1cccc(F)n1 (single isomer, unassigned) [Compound 78A, (16*R,E)-16-(6-fluoropyridin-2-yl)-4-hydroxy-7,10,11,16-tetrahydro-6,17-methanobenzo[k]pyrido[1,2-b][1,2,5]triazacyclotridecine-3,5-dione] | 0.019 µM | > 1 µM |  |  | 
2 | CC1CCCCc2ccccc2C(c2ccccc2)N2CN1C(=O)c1c(O)c(=O)ccn12 (centres unmarked) [Compound 13, 4-hydroxy-7-methyl-15-phenyl-8,9,10,15-tetrahydro-7H-6,16-methanobenzo[j]pyrido[1,2-b][1,2,5]triazacyclododecine-3,5-dione] |  |  | > 2 µM | 0.046 µM | 0.019 µM
